Results as given in patent publication US10526323B2, “Indazole and azaindazole substituted compounds as mGluR4 allosteric potentiators, compositions, and methods of treating neurological dysfunction” (Vanderbilt University, priority 2015, dated 2020).

Target: mGluR4 (UniProt Q14833)
Experiment: mGluR4 potentiation assay: increase in response to an EC20 concentration of agonist (species not given)
Assay type: cell-based
Conditions: EC50 for potentiation of mGluR4; table does not state human or rat
Outline: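 Human mGluR4 was expressed in CHO cells read with a Ca2+-sensitive dye; rat mGluR4 was co-expressed with GIRK in […] read by thallium flux. Potentiation is the rise over agonist-alone response, with EC50 and maximal potentiation from non-linear fits.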

| SMILES | EC50 [nM] |
| --- | --- |
| Cc1nn(CC(C)(C)C)c2ncc(Nc3n[nH]c4cccnc34)cc12 [Example 262, 1-(2,2-dimethylpropyl)-3-methyl-N-(1H-pyrazolo[4,3-b]pyridin-3-yl)pyrazolo[3,4-b]pyridin-5-amine] | 160 |
| Cc1nn(CCO)c2ccc(Nc3n[nH]c4cccnc34)cc12 [Example 94, 2-(5-((1H-pyrazolo[4,3-b]pyridin-3-yl)amino)-3-methyl-1H-indazol-1-yl)ethan-1-ol] | > 10000 |
| Cn1nc(Oc2ccc(C#N)cn2)c2c(Cl)cc(Nc3n[nH]c4cccnc34)cc21 [Example 207, 6-[4-chloro-1-methyl-6-(1H-pyrazolo[4,3-b]pyridin-3-ylamino)indazol-3-yl]oxypyridine-3-carbonitrile] | 482 |
| CCn1nc(Cl)c2cc(Nc3n[nH]c4cccnc34)ccc21 [Example 141, N-(3-chloro-1-ethyl-1H-indazol-5-yl)-1H-pyrazolo[4,3-b]pyridin-3-amine] | 815 |
| Cc1nnc(Cn2nc(C)c3cc(Nc4n[nH]c5cccnc45)ccc32)o1 [Example 129, N-(3-methyl-1-((5-methyl-1,3,4-oxadiazol-2-yl)methyl)-1H-indazol-5-yl)-1H-pyrazolo[4,3-b]pyridin-3-amine] | 1300 |
| Cn1nc(C2CC2)c2ccc(Nc3n[nH]c4cccnc34)cc21 [Example 1, N-(3-cyclopropyl-1-methyl-1H-indazol-6-yl)-1H-pyrazolo[4,3-b]pyridin-3-amine] | 43 |
| Cc1nn(CC(F)(F)F)c2ncc(Nc3n[nH]c4cccnc34)cc12 [Example 253, 3-methyl-N-(1H-pyrazolo[4,3-b]pyridin-3-yl)-1-(2,2,2-trifluoroethyl)pyrazolo[3,4-b]pyridin-5-amine] | 240 |
| Cn1nc(C(=O)N2CCC(F)CC2)c2ccc(Nc3n[nH]c4cccnc34)cc21 [Example 164, (4-fluoro-1-piperidyl)-[1-methyl-6-(1H-pyrazolo[4,3-b]pyridin-3-ylamino)indazol-3-yl]methanone] | 1110 |
| COC(=O)CCCNc1nn(C)c2cc(Nc3n[nH]c4cccnc34)ccc12 [Example 38, methyl 4-((6-((1H-pyrazolo[4,3-b]pyridin-3-yl)amino)-1-methyl-1H-indazol-3-yl)amino)butanoate] | 263 |
| Cc1c2cc(Nc3n[nH]c4cccnc34)ccc2nn1C1CCCC1 [Example 68, N-(2-cyclopentyl-3-methyl-2H-indazol-5-yl)-1H-pyrazolo[4,3-b]pyridin-3-amine] | > 10000 |
| Cc1ccc(-n2nc(C)c3cc(Nc4n[nH]c5cccnc45)ccc32)cc1 [Example 93, N-(3-methyl-1-(p-tolyl)-1H-indazol-5-yl)-1H-pyrazolo[4,3-b]pyridin-3-amine] | > 10000 |
| CCc1nn(C)c2cc(Nc3n[nH]c4cccnc34)ccc12 [Example 24, N-(3-ethyl-1-methyl-1H-indazol-6-yl)-1H-pyrazolo[4,3-b]pyridin-3-amine] | 38 |
| Cc1nn(C2CCCC2)c2ccc(Nc3n[nH]c4cccnc34)cc12 [Example 74, N-(1-cyclopentyl-3-methyl-1H-indazol-5-yl)-1H-pyrazolo[4,3-b]pyridin-3-amine] | 265 |
| Cc1cc(Cn2nc(Cl)c3cc(Nc4n[nH]c5cccnc45)ccc32)on1 [Example 277, N-(3-chloro-1-((3-methylisoxazol-5-yl)methyl)-1H-indazol-5-yl)-1H-pyrazolo[4,3-b]pyridin-3-amine] | 310 |
| [2H]C([2H])(C)n1nc(C)c2cc(Nc3n[nH]c4cccnc34)ccc21 [Example 124, N-(1-(ethyl-1,1-d2)-3-methyl-1H-indazol-5-yl)-1H-pyrazolo[4,3-b]pyridin-3-amine] | 109 |
| CC(C)Oc1nn(C)c2cc(Nc3n[nH]c4cccnc34)ccc12 [Example 44, N-(3-isopropoxy-1-methyl-1H-indazol-6-yl)-1H-pyrazolo[4,3-b]pyridin-3-amine] | 413 |
| Cn1nc(C2CC2)c2ccc(Nc3n[nH]c4ccc(F)cc34)cc21 [Example 7, N-(3-cyclopropyl-1-methyl-1H-indazol-6-yl)-5-fluoro-1H-indazol-3-amine] | 1230 |
| Cc1nn(C2CCC2)c2ncc(Nc3n[nH]c4cccnc34)cc12 [Example 158, 1-cyclobutyl-3-methyl-N-(1H-pyrazolo[4,3-b]pyridin-3-yl)pyrazolo[3,4-b]pyridin-5-amine] | 200 |
| Cc1ccccc1Cc1nn(C)c2cc(Nc3n[nH]c4cccnc34)ccc12 [Example 48, N-(1-methyl-3-(2-methylbenzyl)-1H-indazol-6-yl)-1H-pyrazolo[4,3-b]pyridin-3-amine] | 4400 |
| Cc1nn(CC(C)(F)F)c2ccc(Nc3n[nH]c4cccnc34)cc12 [Example 139, N-(1-(2,2-difluoropropyl)-3-methyl-1H-indazol-5-yl)-1H-pyrazolo[4,3-b]pyridin-3-amine] | 310 |
| Cc1nn(CC2CC(F)(F)C2)c2ccc(Nc3n[nH]c4cccnc34)cc12 [Example 288, N-(1-((3,3-difluorocyclobutyl)methyl)-3-methyl-1H-indazol-5-yl)-1H-pyrazolo[4,3-b]pyridin-3-amine] | 680 |
| Clc1cc(Nc2n[nH]c3cccnc23)cc2cnn(CC3CCC3)c12 [Example 65, N-(7-chloro-1-(cyclobutylmethyl)-1H-indazol-5-yl)-1H-pyrazolo[4,3-b]pyridin-3-amine] | 76 |
| Cc1cc(Cn2ncc3ncc(Nc4n[nH]c5cccnc45)cc32)no1 [Example 146, N-(1-((5-methylisoxazol-3-yl)methyl)-1H-pyrazolo[4,3-b]pyridin-6-yl)-1H-pyrazolo[4,3-b]pyridin-3-amine] | > 10000 |
| CC(C)n1cc2cc(Nc3n[nH]c4cccnc34)cc(Cl)c2n1 [Example 62, N-(7-chloro-2-isopropyl-2H-indazol-5-yl)-1H-pyrazolo[4,3-b]pyridin-3-amine] | 914 |
| CN1CCN(C(=O)c2nn(C)c3cc(Nc4n[nH]c5cccnc45)ccc23)CC1 [Example 166, (4-methylpiperazin-1-yl)-[1-methyl-6-(1H-pyrazolo[4,3-b]pyridin-3-ylamino)indazol-3-yl]methanone] | > 10000 |
| CC1CCC(=O)N1c1nn(C)c2cc(Nc3n[nH]c4cccnc34)ccc12 (stereo not drawn) [Example 42, 1-(6-((1H-pyrazolo[4,3-b]pyridin-3-yl)amino)-1-methyl-1H-indazol-3-yl)-5-methylpyrrolidin-2-one] | 4000 |
| CC(C)n1nc(C2CC2)c2ccc(Nc3n[nH]c4nccnc34)cc21 [Example 17, N-(3-cyclopropyl-1-isopropyl-1H-indazol-6-yl)-1H-pyrazolo[3,4-b]pyrazin-3-amine] | > 10000 |
| CCCCCn1nc(C)c2cc(Nc3n[nH]c4nccnc34)ccc21 [Example 95, N-(3-methyl-1-pentyl-1H-indazol-5-yl)-1H-pyrazolo[3,4-b]pyrazin-3-amine] | 35 |
| Cn1nc(-c2ccncc2)c2ccc(Nc3n[nH]c4cccnc34)cc21 [Example 218, N-[1-methyl-3-(4-pyridyl)indazol-6-yl]-1H-pyrazolo[4,3-b]pyridin-3-amine] | 871 |
| Cc1nn(C2CCOCC2)c2ncc(Nc3n[nH]c4cccnc34)cc12 [Example 259, 3-methyl-N-(1H-pyrazolo[4,3-b]pyridin-3-yl)-1-tetrahydropyran-4-yl-pyrazolo[3,4-b]pyridin-5-amine] | 3700 |
